# Source: patent publication US20030023104A1, “Therapeutic compound - fatty acid conjugates” (COMMONWEALTH SCIENTIFIC AND INDUSTRIAL RESEARCH ORGANISATION, priority 1995, published 2003)
# Several values for one entry are separate records, joined by “and”; a condition that tells them apart may be missing. Equal values may be shown once. Read-outs that look alike come from different tables or passages of the source.
# Experiments:
# [1] = system: HIV-I U4550; assay: Anti HIV activity, Ag gp120 production in infected JM cells; format: cell-based; conditions: for Ratio of AZT: Conjugate EC50: JM cell line; for EC50: JM cells infected with HIV-I U4550, 5 days, read-out: EC50 (concentration which reduces Ag gp120 by 50% in infected cell cultures)
# Procedure: (§1) The anti-HIV activities of AZT-Suc-GTP1 and AZT-Suc-GTP2 were also tested. Infected cells were incubated for 5 days with compound. Compounds were dissolved in DMSO and 5-fold dilutions were used. The following parameters were measured: syncytia formation, virus antigen gp120 production, cell survival. Cytotoxicity is also measured in uninfected cells.
# (§2) JM (semi mature human T-cell from lymphoblastoid leukemia) infected with HIV-I U4550
# (§3) EC50=concentration which reduces Ag gp120by 50% in infected cell cultures.
# [2] = system: HIV-I MN; assay: Anti HIV activity, Ag gp120 production in infected C8166 cells; format: cell-based; conditions: for Ratio of AZT: Conjugate EC50: C8166 cell line; for EC50: C8166 cells infected with HIV-I MN, 5 days, read-out: EC50 (concentration which reduces Ag gp120 by 50% in infected cell cultures)
# Procedure: as §1
# (§4) C8166 (human T-lymphoblastoid cells) infected with HIV-I MN
# as §3
# [3] = system: JM (semi mature human T-cell from lymphoblastoid leukemia); assay: Cell growth (cytotoxicity) in JM cells; format: cell-based; conditions: for IC50: 5 days, read-out: IC50 (concentration of drug which reduces cell growth by 50%)
# Procedure: as §1, §2
# (§5) IC50=concentration of drug which reduces cell growth by 50%.
# [4] = system: C8166 (human T-lymphoblastoid cells); assay: Cell growth (cytotoxicity) in C8166 cells; format: cell-based; conditions: for IC50: 5 days, read-out: IC50 (concentration of drug which reduces cell growth by 50%)
# Procedure: as §1, §4, §5
# [5] = system: coordination of mice; assay: Coordination on Rotor-Rod; format: in vivo, Quackenbush Strain mice; conditions: 1 and 4 hr after ip injection, 1.6 rpm
# Procedure: Coordination of mice after treatment was also assessed by placing treated animals on a Rotor-Rod at 1.6 rpm. The ability of animals to stay on the rod was assessed.
# [6] = system: pain response on heated plate; conditions: for Time Response ± SEM: doses 5, 10 & 20 mg Morphine/kg pooled, 12 mice per group; for Behaviour Score ± SEM: pooled doses, panel score 0 (agitated) to 3 (placid)
# Procedure: The biological activities of Morphine (Mo) and fatty acid conjugates were tested in an antinociceptive assay using mice. Various doses and duration of pain-killing effect of the drugs were examined.
# Quackenbush Strain mice (male, 5-week-old, approximately 30 g live weight) were used for the experiments. Animals were given free access to food and water prior to and during the experiment. Animals were divided into groups of 12 and individually weighed. The mean weight for each group was calculated. Mice were then placed on a metal block heated to 50° C. and the time taken for the animals to show signs of discomfort was measured (baseline response: control). Mice were then injected intraperitoneally (ip) with various doses of Morphine or Morphine-fatty acid conjugate. Morphine was made up in a H2O solution and Morphine-fatty acids were made up in an emulsion containing 10% glycerylmonooleate, 21% Miglyol, 6% ethanol, 24% Tween 80 (33%) and 39% H2O. 0.2 ml of appropriate solution was injected ip into each mouse. At different times after injection, responses on the heated plate were measured. In each experiment 3 doses of Morphine and Morphine-fatty acid and 2 time points were tested. A single mouse was used for each treatment and the entire experiment repeated at least 3 times. […] Members of the panel were asked to score mice behaviour according to the following key:
# 0=agitated mouse, distressed
# 1=showing mild discomfort
# 2=not agitated or uncomfortable but still alert
# 3=placid. docile; not at all worried.
# Results from the panel were averaged.
# [7] = system: JURKAT cells (acute T cell human leukemia)
# Procedure: The cytotoxicity of chlorambucil and chlorambucil fatty acid conjugates (CGTP1. P2 and P3) were tested in vitro with JURKAT cells (acute T cell human leukemia). Cells were incubated with drug and viability was determined by a colourmetric proliferation test. Cytotoxicity towards other cells lines was also tested (PC3 human prostate cancer cells, B16 mouse melanoma cells and human peripheral blood mononuclear cells).
# JURKAT cells were seeded into 96-well plates at a density of 1.6×10^4 cells/200 μl complete RPMI ± drug and cultured for 64 h. A 1:3 split of confluent PC3 cells in a 75 cm^2 flask were seeded into a 96-well plate and cultured for 48 h in complete RPMI. Media was removed and complete RPMI ± drug was added to wells. Cells were further cultured for 72 h.
# i) Ethanol. Drugs were dissolved in ethanol and added to culture media. The final concentration of ethanol in media was no greater than 1% (v/v). This delivery was used for experiments with JURKAT, PBMC, PC3 and B16 cell types.
# ii) Coating of plates. Drugs were dissolved in ethanol and aliquots (up to 40 μl) were added to 90% (v/v) isopropanol. Solution (50 μl) was then added to wells of a 96-well plate and the solvent evaporated by heating at 37° C. Media ± cells was then added. This delivery was used for some experiments with JURKAT cells.
# Viability was determined using the MTS assay (CellTiter 96TM AQueous Non-Radioactive Cell Proliferation Assay) from Promega. Reagent (40 μl) was added to each well and absorbance values at 490 nm were determined 1 to 4 h later. The effect of drug on cell viability was compared to cultures set up containing no drug (100% viability). Wells containing no cells were used to control for background absorbance (0% viability). Each concentration was tested in at least 3 wells. Concentrations necessary to cause a 50% inhibition of cellular growth of control cells (IC50) were calculated by linear regression.
# [8] = system: PC3 human prostate cancer cells; assay: Cytotoxicity of chlorambucil and conjugates, MTS assay, PC3; format: cell-based; conditions: for IC50: PC3, ethanol delivery, 72 h
# Procedure: Cells were further cultured for 72 h.
# (§6) Each concentration was tested in at least 3 wells.
# [9] = system: B16 mouse melanoma cells; assay: Cytotoxicity of chlorambucil and conjugates, MTS assay, B16; format: cell-based; conditions: for IC50: B16, ethanol delivery, 48 h
# Procedure: Media was removed and complete EMEM ± drug was added to wells. Cells were further cultured for 48 h.
# as §6
# [10] = system: human peripheral blood mononuclear cells; assay: Cytotoxicity of chlorambucil and conjugates, MTS assay, PBMC; format: cell-based; conditions: for IC50: ethanol delivery
# Procedure: Human peripheral blood mononuclear cells (PBMC) were isolated from one healthy donor by centrifugation on Ficoll-Paque (Pharmacia). Cells were seeded into a 96-well plates at a density of 2×10^5 cells/200 μl complete RPMI ± drug and cultured for 40 h.
# as §6
# [11] = system: JURKAT (acute T cell human leukemia); assay: Cytotoxicity of AZT and conjugates, MTS viability assay, JURKAT; format: cell-based
# Procedure: (§7) The cytotoxicity of AZT and AZT-fatty acid conjugates (AZT-Suc-GTP1P2 and P3) was tested in vitro with JURKAT (acute T cell human leukemia) and peripheral blood mononuclear cells (PBMC).
# as §6
# [12] = system: peripheral blood mononuclear cells (PBMC); assay: Cytotoxicity of AZT and conjugates, MTS viability assay, PBMC; format: cell-based, human; conditions: 40 h, drug in ethanol
# Procedure: as §7
# Human peripheral blood mononuclear cells (PBMC) were isolated from three healthy donors by centrifugation on Ficoll-Paque (Pharmacia). Cells were seeded into a 96-well plates at a density of 2×10^5 cells/200 ul complete RPMI ± drug and cultured for 40 h.
# as §6
# [13] = system: B16 melanoma cells; assay: Tumour Cytotoxicity Model (B16 melanoma in C57 mice); format: in vivo, C57 black mice; set-up: Mean (standard error) of B16 tumour volume adjusted for the variation in initial volume: scale not given here; conditions: for Mean (standard error) of B16 tumour volume adjusted for the variation in initial volume: statistically modified tumour volume; for B16 Tumour Volume: individual mice
# Procedure: Groups of C57 black mice were given an initiation dose of 2×10^5 B16 melanoma cells as an intradermal injection. The cells were suspended in MEM without serum. The abdomen was clipped and 100 μl of cells + MEM was injected. […] The tumours were measured with a micrometer and photographed just prior to the injection of drug (day 8-10).
# The cytotoxic drugs and their fatty acid conjugates were dissolved or suspended in 4:1 soy bean oil:ethyl oleate. A 10 mg/ml or a 20 mg/ml solution of each parent drug or the fatty acid conjugate made to the same molar concentration as the parent drug was then injected into the same region as the tumour at a dose of 0.5 mg or 1 mg. The tumours were then photographed, measured and re-injected every two to three days.
# [14] = JURKAT, addition of ethanol solution to culture media
# [15] = JURKAT, coating of plates (Table 8)
# [16] = JURKAT, drugs coated onto plates (Table 9)
molecule,measurement,setting,value
CCCCCCCCCCCCCCCC(=O)OCC(CO)(COC(=O)CCCCCCCCCCCCCCC)NC(=O)CNC(=O)CCC(=O)OC[C@H]1O[C@@H](n2cc(C)c(=O)[nH]c2=O)C[C@@H]1N=[N+]=[N-] [AZT-Suc-GTP2],Ratio of AZT: Conjugate EC50,[1],approx. 0.5
same,EC50,[1],> 200 µM
same,Ratio of AZT: Conjugate EC50,[2],0.5
same,EC50,[2],0.032 µM
same,fold more cytotoxic than AZT,[3],25
same,IC50,[3],200 µM
same,fold more cytotoxic than AZT,[4],25
same,IC50,[4],200 µM
"CCCCCCCCCCCCCCCC(=O)OCC(CO)(COC(=O)CCCCCCCCCCCCCCC)NC(=O)CNC(=O)CCC(=O)Oc1ccc2c3c1O[C@H]1[C@@H](O)C=C[C@H]4[C@@H](C2)N(C)CC[C@@]341 [Morphine-Suc-GTP2, Morphine-Suc-Gly-Tris-Dipalmitate]",ability to stay on the Rotor-Rod (coordination),[5],able to stay on the rotor-rod
same,mean time response,"[6]; 5 mg Mo/kg ip, 1 hr",24.0 (4) sec
same,mean time response,"[6]; 5 mg Mo/kg ip, 4 hr",30.5 (8) sec
same,mean time response,"[6]; 5 mg Mo/kg ip, 6 hr",27.8 (4) sec
same,Time Response ± SEM,[6]; 1 hr after ip injection,26.7 ± 2.74 s
same,Behaviour Score ± SEM,[6]; 1 hr after ip injection,2.34 ± 0.166
same,Time Response ± SEM,[6]; 4 hr after ip injection,31.2 ± 2.74 s
same,Behaviour Score ± SEM,[6]; 4 hr after ip injection,2.35 ± 0.166
same,duration of pain-killing effect compared with morphine,[6]; ip injection,longer lasting pain-killing effect than unconjugated morphine
"CCCCCCCCCCCCCCCC(=O)OCC(CO)(CO)NC(=O)CNC(=O)CCCc1ccc(N(CCCl)CCCl)cc1 [CGTP1, Chlorambucil-Gly-Tris-Monopalmitate]",Clorambucil to CGTP1 Ratio (IC50),[7]; JURKAT,15 and 15.5
same,IC50,[7]; [14],6.5 µM
same,IC50,[7]; [15],8.6 µM
same,IC50,[7]; [16],8.4 µM
same,IC50,"[7]; JURKAT, ethanol delivery, 64 h",6.5 µM
same,cytotoxicity to JURKAT cells (in words),"[7]; comparison of conjugate, equimolar mixture and GTP1 alone",more cytotoxic to JURKAT cells than an equimolar mixture of chlorambucil and GTP1
same,Clorambucil to CGTP1 Ratio (IC50),[8]; PC3,15.0
same,IC50,[8],10.7 µM
same,Clorambucil to CGTP1 Ratio (IC50),[9]; B16,1.6
same,IC50,[9],23.1 µM
same,fold increase in toxicity to normal cells (PBMC) versus chlorambucil,[10]; PBMC,approximately 5
same,Clorambucil to CGTP1 Ratio (IC50),[10]; PBMC (1),6.3
same,IC50,"[10]; PBMC (1) = one donor, 40 h",7.1 µM
same,Clorambucil to CGTP1 Ratio (IC50),[10]; PBMC (3),approx. 4
same,IC50,[10]; PBMC (3) = three donors,5.5 µM
CCCCCCCCCCCCCCCC(=O)OCC(CO)(CO)NC(=O)CNC(=O)CCC(=O)OC[C@H]1O[C@@H](n2cc(C)c(=O)[nH]c2=O)C[C@@H]1N=[N+]=[N-] [AZT-Suc-GTP1],times more cytotoxic than the parent drug,"[11]; JURKAT cells, versus AZT",40
same,IC50,"[11]; JURKAT, 64 h, drug in ethanol, MTS",43 µM
same,IC50,[12],26.7 µM
same,Ratio of AZT: Conjugate EC50,[1],12.5
same,EC50,[1],8 µM
same,Ratio of AZT: Conjugate EC50,[2],1.3
same,EC50,[2],0.012 µM
same,fold more cytotoxic than AZT,[3],50
same,IC50,[3],100 µM
same,fold more cytotoxic than AZT,[4],50
same,IC50,[4],100 µM
"CN1CC[C@]23c4c5ccc(O)c4O[C@H]2[C@@H](O)C=C[C@H]3[C@H]1C5 [Morphine, reference compound]",ability to stay on the Rotor-Rod (coordination),[5],able to stay on the rotor-rod
same,mean time response,"[6]; 1 mg Mo/kg ip, 4 hr, standard error of each mean ±2.86",23.2 s
same,mean time response,"[6]; 1 mg Mo/kg ip, 6 hr, standard error of each mean ±2.86",20.8 s
same,mean time response,"[6]; 5 mg Mo/kg ip, 1 hr",27.8 (4) sec
same,mean time response,"[6]; 5 mg Mo/kg ip, 4 hr",23.9 (8) sec
same,mean time response,"[6]; 5 mg Mo/kg ip, 6 hr",20.0 (4) sec
same,mean time response,"[6]; 10 mg Mo/kg ip, 4 hr, standard error of each mean ±2.86",23.0 s
same,mean time response,"[6]; 10 mg Mo/kg ip, 6 hr, standard error of each mean ±2.86",24.2 s
same,Time Response ± SEM,[6]; 1 hr after ip injection,32.7 ± 2.74 s
same,Behaviour Score ± SEM,[6]; 1 hr after ip injection,2.46 ± 0.166
same,Time Response ± SEM,[6]; 4 hr after ip injection,28.2 ± 2.74 s
same,Behaviour Score ± SEM,[6]; 4 hr after ip injection,1.93 ± 0.166
Chlorambucil [reference compound],IC50,[7]; [14],101 µM
same,IC50,[7]; [15],219 µM
same,IC50,[7]; [16],219 µM
same,IC50,"[7]; JURKAT, ethanol delivery, 64 h",101 µM
same,IC50,[8],160 µM
same,IC50,[9],36.5 µM
same,IC50,"[10]; PBMC (1) = one donor, 40 h",45 µM
same,IC50,[10]; PBMC (3) = three donors,< 22 µM
same,difference in tumour volume from the Vehicle group (95% level),[13]; 0.5 mg and 1.0 mg groups,significant difference
same,Mean (standard error) of B16 tumour volume adjusted for the variation in initial volume,"[13]; 13/11/95, 0.5 mg",3.01 (0.610)
same,Mean (standard error) of B16 tumour volume adjusted for the variation in initial volume,"[13]; 15/11/95, 0.5 mg",3.29 (0.955)
same,Mean (standard error) of B16 tumour volume adjusted for the variation in initial volume,"[13]; 16/11/95, 0.5 mg",3.46 (1.15)
same,Mean (standard error) of B16 tumour volume adjusted for the variation in initial volume,"[13]; 17/11/95, 0.5 mg",3.65 (1.38)
same,toxicity observed in test group,"[13]; C57 mice, repeated injection every two to three days",High toxicity
same,B16 Tumour Volume,"[13]; Day 1, drug dose 0.5 mg injected at tumour region",0.5 mm^2 and 1.6 mm^2 and 8.2 mm^2 and 16.6 mm^2
same,B16 Tumour Volume,"[13]; Day 3, drug dose 0.5 mg",0.5 mm^2 and 0 mm^2 and 21.8 mm^2 and 38.3 mm^2
same,B16 Tumour Volume,"[13]; Day 5, drug dose 0.5 mg",0 mm^2 (2×) and 7.7 mm^2 and 108.4 mm^2
same,B16 Tumour Volume,"[13]; Day 6, drug dose 0.5 mg",0 mm^2 (2×) and 7.7 mm^2 and 125.1 mm^2
same,B16 Tumour Volume,"[13]; Day 7, drug dose 0.5 mg",0 mm^2 (2×) and 5.9 mm^2 and 174.1 mm^2
same,mice died,[13]; chlorambucil test group,3 out of 7
